Data as given in ChEMBL document CHEMBL4033686, “Phenylbenzenesulfonates and -sulfonamides as 17β-hydroxysteroid dehydrogenase type 2 inhibitors: Synthesis and SAR-analysis” (Bioorg Med Chem Lett, 2017).

Columns and labels:
Type in all cases: cell-based
[1] = biological target: T1, 17-beta-hydroxysteroid dehydrogenase type 2 (Homo sapiens) (UniProt P37059); test: Inhibition of recombinant human 17beta-HSD2 expressed in HEK293 cells assessed as residual activity at 20 uM using estradiol as substrate after 10 mins in presence of radiolabeled tracer substrate by scintillation counting method relative to control
T1 sequence (whole entry): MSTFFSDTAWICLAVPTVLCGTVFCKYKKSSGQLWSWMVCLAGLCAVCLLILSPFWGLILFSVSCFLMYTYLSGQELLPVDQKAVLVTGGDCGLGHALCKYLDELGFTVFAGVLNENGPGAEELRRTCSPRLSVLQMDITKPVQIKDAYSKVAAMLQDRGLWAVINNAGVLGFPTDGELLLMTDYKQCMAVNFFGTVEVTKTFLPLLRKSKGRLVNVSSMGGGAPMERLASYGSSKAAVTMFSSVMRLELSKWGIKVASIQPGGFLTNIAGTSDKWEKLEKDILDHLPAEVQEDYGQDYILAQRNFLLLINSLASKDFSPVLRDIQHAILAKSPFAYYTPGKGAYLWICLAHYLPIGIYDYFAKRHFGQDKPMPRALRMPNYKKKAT

[2] = biological target: T2, 17-beta-hydroxysteroid dehydrogenase type 2 (Homo sapiens, UniProt P37059); test: Inhibition of recombinant human 17beta-HSD2 expressed in HEK293 cells using estradiol as substrate after 10 mins in presence of radiolabeled tracer substrate by scintillation counting method
T2 sequence (P37059 whole entry): T1 sequence (whole entry)

Homo sapiens [3] = species: Homo sapiens; test: Selectivity index, ratio of compound effect for inhibition of recombinant human 17beta-HSD1 expressed in HEK293 cells assessed as residual activity to compound effect for inhibition of 17beta-HSD2 expressed in HEK293 cells assessed as residual activity
[4] = biological target: 11-beta-hydroxysteroid dehydrogenase 1 (Homo sapiens) (UniProt P28845); test: Inhibition of recombinant human 11beta-HSD1 expressed in HEK293 cells assessed as residual activity at 20 uM using cortisone as substrate after 10 mins in presence of radiolabeled tracer substrate by scintillation counting method relative to control
Sequence of 11-beta-hydroxysteroid dehydrogenase 1 (Homo sapiens) (P28845 whole entry, looked up): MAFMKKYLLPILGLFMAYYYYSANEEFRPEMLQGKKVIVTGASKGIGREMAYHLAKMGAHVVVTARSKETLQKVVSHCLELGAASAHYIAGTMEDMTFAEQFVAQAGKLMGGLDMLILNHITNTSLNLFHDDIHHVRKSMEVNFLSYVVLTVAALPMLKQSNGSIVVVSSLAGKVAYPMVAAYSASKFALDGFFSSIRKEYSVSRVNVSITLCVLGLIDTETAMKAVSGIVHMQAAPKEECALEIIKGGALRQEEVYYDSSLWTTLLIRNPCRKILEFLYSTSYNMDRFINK

Homo sapiens [5] = species: Homo sapiens; test: Selectivity index, ratio of compound effect for inhibition of recombinant human 11beta-HSD1 expressed in HEK293 cells assessed as residual activity to compound effect for inhibition of 17beta-HSD2 expressed in HEK293 cells assessed as residual activity
Homo sapiens [6] = species: Homo sapiens; test: Selectivity index, ratio of compound effect for inhibition of recombinant human 11beta-HSD2 expressed in HEK293 cells assessed as residual activity to compound effect for inhibition of 17beta-HSD2 expressed in HEK293 cells assessed as residual activity
[7] = biological target: T3, 11beta-HSD2 (11-beta-hydroxysteroid dehydrogenase type 2) (Homo sapiens, UniProt P80365); test: Inhibition of recombinant human 11beta-HSD2 expressed in HEK293 cells assessed as residual activity at 20 uM using cortisol as substrate after 10 mins in presence of radiolabeled tracer substrate by scintillation counting method relative to control; details: HEK293 cells expressing recombinant human 11beta-HSD2, probe cortisol, read-out: Activity
T3 sequence (P80365 whole entry): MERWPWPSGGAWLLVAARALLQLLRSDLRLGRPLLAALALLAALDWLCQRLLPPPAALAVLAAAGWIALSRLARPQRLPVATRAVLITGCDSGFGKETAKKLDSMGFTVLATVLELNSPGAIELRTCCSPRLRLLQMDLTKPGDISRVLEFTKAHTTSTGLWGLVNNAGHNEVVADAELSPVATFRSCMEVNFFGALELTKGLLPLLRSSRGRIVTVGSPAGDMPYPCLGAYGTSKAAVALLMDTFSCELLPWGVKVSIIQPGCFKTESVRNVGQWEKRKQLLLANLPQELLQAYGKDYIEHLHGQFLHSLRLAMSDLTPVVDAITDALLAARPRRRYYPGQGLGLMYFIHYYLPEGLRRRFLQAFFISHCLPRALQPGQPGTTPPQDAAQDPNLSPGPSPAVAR

[8] = biological target: T4, 17-beta-hydroxysteroid dehydrogenase type 1 (Homo sapiens) (UniProt P14061); test: Inhibition of recombinant human 17beta-HSD1 expressed in HEK293 cells assessed as residual activity at 20 uM using estrone as substrate after 10 mins in presence of radiolabeled tracer substrate by scintillation counting method relative to control
T4 sequence (whole entry): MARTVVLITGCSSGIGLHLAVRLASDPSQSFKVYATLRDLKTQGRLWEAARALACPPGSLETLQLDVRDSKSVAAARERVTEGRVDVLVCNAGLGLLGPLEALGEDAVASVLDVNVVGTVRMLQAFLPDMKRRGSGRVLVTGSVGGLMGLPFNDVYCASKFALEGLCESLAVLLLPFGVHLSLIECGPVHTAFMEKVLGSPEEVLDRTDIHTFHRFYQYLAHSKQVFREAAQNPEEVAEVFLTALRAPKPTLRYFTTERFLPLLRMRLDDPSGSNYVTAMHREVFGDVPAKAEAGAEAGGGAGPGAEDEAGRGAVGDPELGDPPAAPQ

CC(C)(C)c1ccc(S(=O)(=O)Oc2ccc(Cl)cc2N)cc1
Activity [1]: 44%

Cc1cc(N)c(NS(=O)(=O)c2ccc(C(C)(C)C)cc2)cc1C
Activity [1]: 58%

CC(C)(C)c1ccc(S(=O)(=O)Nc2cc(Cl)c(Cl)cc2N)cc1
Activity [1]: 11% | IC50 [2]: 4.65 µM | Selectivity Index (Homo sapiens [3]): 2.1 | Activity [4]: 74% | Selectivity Index (Homo sapiens [5]): 6.7 | Selectivity Index (Homo sapiens [6]): 1.9 | activity at 10 min, 20 µM [7]: 21% | Activity [8]: 23%

CC(C)(C)c1ccc(S(=O)(=O)Nc2cc(-c3ccccc3)ccc2O)cc1
Activity [1]: 2% | IC50 [2]: 1.25 µM | Selectivity Index (Homo sapiens [3]): 6.5 | Activity [4]: 62% | Selectivity Index (Homo sapiens [5]): 31 | Selectivity Index (Homo sapiens [6]): 1.5 | activity at 10 min, 20 µM [7]: 3% | Activity [8]: 13%

Cc1cc(C)c(O)c(NS(=O)(=O)c2ccc(C(C)(C)C)cc2)c1
Activity [1]: 18% | IC50 [2]: 5.19 µM | Selectivity Index (Homo sapiens [3]): 1.1 | Activity [4]: 43% | Selectivity Index (Homo sapiens [5]): 2.4 | Selectivity Index (Homo sapiens [6]): 2.1 | activity at 10 min, 20 µM [7]: 37% | Activity [8]: 19%

CC(C)(C)c1ccc(S(=O)(=O)Oc2ccc(-c3ccccc3)cc2N)cc1
Activity [1]: 86%

Cc1cc(C)c(OS(=O)(=O)c2ccc(C(C)(C)C)cc2)c(N)c1
Activity [1]: 49%

Cc1ccc(OS(=O)(=O)c2ccc(C(C)(C)C)cc2)c(N)c1
Activity [1]: 37%

O=c1cc(-c2ccc(O)cc2)oc2cc(O)cc(O)c12
Activity [8]: 11%

CC(C)(C)c1ccc(S(=O)(=O)Nc2ccc(F)cc2N)cc1
Activity [1]: 36% | Selectivity Index (Homo sapiens [3]): 1.6 | Activity [4]: 26% | Selectivity Index (Homo sapiens [5]): 0.7 | Selectivity Index (Homo sapiens [6]): 2.7 | activity at 10 min, 20 µM [7]: 97% | Activity [8]: 56%

Cc1cc(S(=O)(=O)Nc2cccc(O)c2)c(C)cc1Cl
Activity [1]: 10%

CC(C)(C)c1ccc(S(=O)(=O)Oc2ccc3ccccc3c2N)cc1
Activity [1]: 43%

Cc1ccc(N)c(OS(=O)(=O)c2ccc(C(C)(C)C)cc2)c1
Activity [1]: 36%

CC(C)(C)c1ccc(S(=O)(=O)Nc2ccccc2O)cc1
Activity [1]: 5% | IC50 [2]: 1.23 µM | Selectivity Index (Homo sapiens [3]): 8.2 | Activity [4]: 37% | Selectivity Index (Homo sapiens [5]): 7.4 | Selectivity Index (Homo sapiens [6]): 16.6 | activity at 10 min, 20 µM [7]: 83% | Activity [8]: 41%

CC(C)(C)c1ccc(S(=O)(=O)Nc2cc(Cl)ccc2N)cc1
Activity [1]: 22 to 28% | IC50 [2]: 5.58 µM | Selectivity Index (Homo sapiens [3]): 2.1 | Activity [4]: 28% | Selectivity Index (Homo sapiens [5]): 1.3 | Selectivity Index (Homo sapiens [6]): 3.4 | activity at 10 min, 20 µM [7]: 75% | Activity [8]: 46%

Cc1ccc(O)c(NS(=O)(=O)c2ccc(C(C)(C)C)cc2)c1
Activity [1]: 13% | IC50 [2]: 4.09 µM | Selectivity Index (Homo sapiens [3]): 2.9 | Activity [4]: 46% | Selectivity Index (Homo sapiens [5]): 3.5 | Selectivity Index (Homo sapiens [6]): 4.8 | activity at 10 min, 20 µM [7]: 63% | Activity [8]: 38%

CC(C)(C)c1ccc(S(=O)(=O)Nc2cc(Cl)ccc2O)cc1
Activity [1]: 6% | IC50 [2]: 0.8 µM | Selectivity Index (Homo sapiens [3]): 2.5 | Activity [4]: 35% | Selectivity Index (Homo sapiens [5]): 5.8 | Selectivity Index (Homo sapiens [6]): 1.2 | activity at 10 min, 20 µM [7]: 7% | Activity [8]: 15%

CC(C)(C)c1ccc(S(=O)(=O)Nc2c(O)ccc3ccccc23)cc1
Activity [1]: 7% | IC50 [2]: 2.9 µM | Selectivity Index (Homo sapiens [3]): 8.6 | Activity [4]: 21% | Selectivity Index (Homo sapiens [5]): 3 | Selectivity Index (Homo sapiens [6]): 3 | activity at 10 min, 20 µM [7]: 21% | Activity [8]: 46%

CC(C)(C)c1ccc(S(=O)(=O)Nc2ccc(Cl)cc2N)cc1
Activity [1]: 35%

CC(C)(C)c1ccc(S(=O)(=O)Oc2ccccc2N)cc1
Activity [1]: 33%

Cc1ccc(NS(=O)(=O)c2ccc(C(C)(C)C)cc2)c(O)c1
Activity [1]: 22% | IC50 [2]: 4.4 µM | Selectivity Index (Homo sapiens [3]): 1.6 | Activity [4]: 24% | Selectivity Index (Homo sapiens [5]): 1.1 | Selectivity Index (Homo sapiens [6]): 2.8 | activity at 10 min, 20 µM [7]: 62% | Activity [8]: 35%

CC(C)(C)c1ccc(S(=O)(=O)Nc2ccccc2N)cc1
Activity [1]: 46%
